# In PMC9458217, “Synthesis and Biological Evaluation of Cassane Diterpene (5α)-Vuacapane-8(14), 9(11)-Diene and of Some Related Compounds” (Molecules, 2022):
# Where “and” joins values, the source holds several entries; their conditions need not be identical. Equal entries are not always repeated. Where two headings read alike, the source gives them in different places.
# Columns and labels:
# [1] = tested on: RAW 264.7 monocyte/macrophage murine cells; experiment: MTT cytotoxicity on RAW 264.7 cells; format: cell-based; settings: Mus musculus
# Experimental: MTT is transformed to formazan in cells with metabolism capacity (viable cells), as the number of viable cells is proportional to formazan concentration; this assay was used to determine the cytotoxicity of the compounds.
# In all experiments, subconfluent monolayer cells were used.
# The effect of compounds on the cell viability was determined by the MTT method (Sigma, St. Louis, MO, USA). The cytotoxicity of the compounds was detected by measuring the absorbance of MTT dye staining of cells with metabolism capacity. […] Finally, after 72 h, 100 μL of MTT solution (0.5 mg/mL) in 50% of PBS and 50% of the medium was added to each well. After 1.5 h of incubation, formazan was re-suspended in 100 μL of DMSO, and each concentration was tested in triplicate.
# (§1) Experimental cytotoxicity data were fitted to a sigmoidal function (y = ymax/ (x/a)^−b) by non-linear regression. […] Similar analyses were performed to obtain the IC50 of NO production (IC50 NO). All shown data are representative of at least two independent experiments performed in triplicate. All quantitative data were summarized as the means ± standard deviation (SD).
# [2] = tested on: HT29 human colorectal adenocarcinoma cell line; experiment: MTT cytotoxicity on HT29 cells; settings: HT-29, 72 h
# Experimental: (§2) These studies were performed using the MTT assay, based on formazan dye formation and expressed as a percentage with respect to untreated control cells (100% of cell metabolism).
# (§3) The effect of compounds on the cell viability was determined by the MTT method [27] (Sigma, St. Louis, MO, USA). The cytotoxicity of the compounds was detected by measuring the absorbance of MTT dye staining of cells with metabolism capacity. […] Finally, after 72 h, 100 μL of MTT solution (0.5 mg/mL) in 50% of PBS and 50% of the medium was added to each well. After 1.5 h of incubation, formazan was re-suspended in 100 μL of DMSO, and each concentration was tested in triplicate.
# (§4) Experimental cytotoxicity data were fitted to a sigmoidal function (y = ymax/ (x/a)^−b) by non-linear regression. […] All shown data are representative of at least two independent experiments performed in triplicate. All quantitative data were summarized as the means ± standard deviation (SD).
# [3] = tested on: LPS-induced J774.A1 macrophage cells; parameters: method as in PMID 34990974; settings: 50 μM, natural compounds; cited from earlier work
# [4] = tested on: HepG2 human hepatocarcinome cell-line; experiment: MTT cytotoxicity on HepG2 cells; settings: HepG2, 72 h
# Experimental: as §2, §3, §4
# [5] = tested on: B16-F10 mouse melanoma cells; experiment: MTT cytotoxicity on B16-F10 cells
# Experimental: as §2, §3, §4
# [6] = tested on: LPS-stimulated RAW 264.7 murine macrophage cells; experiment: Inhibition of NO production (nitrite, Griess reaction) in LPS-stimulated RAW 264.7 cells; format: cell-based; settings: for IC50: Mus musculus, RAW264.7, 72 h; for IC50 / IC50 NO: LPS-activated RAW 264.7, 72 h of incubation; for NO inhibition: 72 h
# Experimental: The activation of the inflammatory process induces nitric oxide, NO, released as a second messenger. NO production can be used as the main indicator to assess inflammatory activity, which can be measured using nitrite (NO^2–) quantification (proportional to the released NO), determined through the Griess reaction. […] Inhibition percentages were calculated with respect to the increase between positive control (only LPS treated control cells) and negative control (untreated control cells).
# The absorbance was referred to nitrite standard curve to determine the concentration of nitrite in the supernatant of each experimental sample. The percentage of NO production was determined, assigning 100% at the increase between negative control (untreated cells) and positive control (cells only treated with 10 μg/mL of LPS).
# as §1
# [7] = tested on: RAW 264.7 cells, activated by LPS; experiment: Cell cycle distribution of LPS-activated RAW 264.7 cells, flow cytometry with PI; format: cell-based, murine
# Experimental: The cell-cycle distribution was analyzed by flow cytometry with propidium iodide (IP) staining (Figure 3). Significant growth arrest of the cell cycle in LPS-induced RAW 264.7 cells produced 100% detention in the G0/G1 phase (positive control) compared to the negative control (49.6%). After incubation with compound 20, the percentage of cells found in the G0/G1 phase was 29%, 32%, and 36%, respectively, at the assayed concentrations. Similar results were found for compound 16 (35%, 38%, and 39%) after 72 h of incubation at the same concentrations. This decrease was accompanied by the consequent increase in the number of cells in the S phase: 70%, 68%, and 56%, respectively, for compound 20, and 63%, 61%, and 59% for compound 16. […] This recovery of the cell cycle with respect to control cells (only LPS treated) could be a consequence of the anti-inflammatory effect produced by the tested compounds, which increase cell division, rescuing RAW 264.7 cells from LPS-induced arrest during their monocyte/macrophage differentiation process.
# DNA content is directly proportional to the PI fluorescence; it allows us to determine the percentage of cells in each cell cycle phase. Using a fluorescence-activated cell sorter (FACS) at 488 nm in an Epics XL flow cytometer (Coulter Corporation, Hialeah, FL, USA), cell subpopulations could be visualized with different DNA contents. […] By treating cells only with LPS, the positive control was performed. However, the negative control was prepared, exposing cells […]. After treatment, cells were washed twice with PBS and trypsine solution, then resuspended in TBS 1X (10 Mm Tris, 150 Mm NaCl) and then Vindelov buffer (100 mM Tris, 100 Mm NaCl, 10 mg/mL Rnasa, 1 mg/mL PI, pH 8) was added. The samples were placed for 15 min on ice. Immediately before FACS analysis, cells were stained with 20 μL of 1 mg/mL PI solution. Data were analyzed to determine the percentage of cells in each cell cycle phase (G0/G1, S, and G2/M).
# [8] = RAW264.7, RAW 264.7, MTT, 72 h of incubation, 20% cell viability inhibition, read-out: IC20
# [9] = RAW264.7, RAW 264.7, MTT, 72 h of incubation, 80% cell viability inhibition, read-out: IC80
# [10] = RAW264.7, RAW 264.7, MTT, 72 h of incubation, read-out: IC50
Structure (SMILES),IC50 [4] [mg/L],"IC50 ([5]; Mus musculus, B16-F10, 72 h) [mg/L]","IC50 ([2]; HT29, MTT, 72 h) [mg/L]",IC50 [6] [mg/L],IC50 ([5]; 72 h),"IC20 [1, 8] [mg/L]","IC80 [1, 9] [mg/L]","IC50 [1, 10] [mg/L]",NO inhibition ([6]; at ¾ IC50 concentration),also measured
"Cc1c2c(cc3c1CC[C@H]1C(C)(C)CCC[C@]31C)OC(=O)C2 [Compound 5, pterolobirin H]",–,–,–,–,–,–,–,–,–,"IC20 ([1]; RAW264.7, 72 h): 34.9 ± 2.11 mg/L; IC80 ([1]; RAW264.7, 72 h): 64.2 ± 3.29 mg/L"
"Cc1c2c(cc3occc13)[C@@]1(C)CCCC(C)(C)[C@@H]1CC2 [Compound 7, (5a)-vouacapane-8(14),9(11)-diene]",14 ± 0.5,31.7 ± 1.1,–,–,–,–,–,–,–,"IC50 [2]: 20.7 ± 1.09 mg/L; inhibition of NO production [3]: did not show any significant inhibition of NO production; IC20 ([1]; RAW264.7, 72 h): 50.9 ± 1.61 mg/L; IC50 ([1]; RAW264.7, 72 h): 57.5 ± 1.06 mg/L; IC80 ([1]; RAW264.7, 72 h): 65.5 ± 0.95 mg/L"
COC(=O)c1ccc2c(c1C(=O)OC)CC[C@H]1C(C)(C)CCC[C@]21C [Compound 14],33.8 ± 0.8,< 10,15.4 ± 2.72,10.7 ± 1.14,9.25 ± 0.74 mg/L,22.92 ± 0.13,26.89 ± 0.02,24.67 ± 0.04,–,–
COC(=O)C1=C(C(=O)OC)C2(C)CC[C@H]3C(C)(C)CCC[C@]3(C)C2=CC1 (some centres unmarked) [Compound 15],58.32 ± 0.32,13 ± 1.8,25.3 ± 0.89,7.98 ± 0.1,–,43.7 ± 2.37,83.67 ± 0.64,64.6 ± 1.39,–,–
COC(=O)C1=C(C(=O)OC)C2(C)CC[C@H]3C(C)(C)CCC[C@]3(C)C2=CC1=O (some centres unmarked) [Compound 16],26.7 ± 0.88,< 10,11.9 ± 0.8,2.98 ± 0.04,6.01 ± 0.41 mg/L,14.5 ± 0.68,–,26.7 ± 0.88,100%,"IC50 NO [6]: 5.71 ± 0.14 mg/L; NO inhibition ([6]; at ¼ IC50 concentration): 100%; NO inhibition ([6]; at ½ IC50 concentration): 100%; cells in the S phase ([7]; ¼ IC50, 72 h): 63%; percentage of cells in the G0/G1 phase ([7]; ¼ IC50, 72 h, LPS control 100%, negative control 49.6%): 35%; changes in the G2/M phase ([7]; ¼, ½ and ¾ IC50, 72 h): not significant; cells in the S phase ([7]; ½ IC50, 72 h): 61%; percentage of cells in the G0/G1 phase ([7]; ½ IC50, 72 h): 38%; cells in the S phase ([7]; ¾ IC50, 72 h): 59%; percentage of cells in the G0/G1 phase ([7]; ¾ IC50, 72 h): 39%"
COC(=O)c1c(O)cc2c(c1C(=O)OC)CC[C@H]1C(C)(C)CCC[C@]21C [Compound 17],8.15 ± 0.1,< 10,5.96 ± 0.55,4.74 ± 1.27,5.96 ± 0.55 mg/L and 5.97 ± 0.55 mg/L,4.95 ± 0.13,11.8 ± 2.97,7.49 ± 0.86,30.52%,–
COC(=O)c1c(O)cc2c(c1C)CC[C@H]1C(C)(C)CCC[C@]21C [Compound 18],13.57 ± 0.12,< 10,30.7 ± 0.49,31.4 ± 4.9,5.96 ± 0.35 mg/L,7.32 ± 2.53,20.4 ± 0.26,13.1 ± 1.51,11.06%,–
Cc1c(CO)c(O)cc2c1CC[C@H]1C(C)(C)CCC[C@]21C [Compound 19],12.2 ± 1.78,48.8 ± 2.79,49 ± 0.72,27.57 ± 0.2,–,70.83 ± 0.28,78.94 ± 0.28,74.65 ± 0.17,–,–
CC1(C)CCC[C@]2(C)c3cc(O)c(C=O)cc3CC[C@@H]12 [Compound 23],8.36 ± 1.77,4.33 ± 0.27,5.19 ± 0.17,3.22 ± 0.05,–,5.13 ± 0.18,6.8 ± 0.24,5.87 ± 0.18,78.48%,IC50 NO [6]: 3.32 ± 0.05 mg/L
CC1(C)CCC[C@]2(C)c3cc(O)c(CO)cc3CC[C@@H]12 [Compound 24],24.2 ± 2.71,10.51 ± 0.01,17.4 ± 1.97,15.2 ± 2.13,–,9.09 ± 0.03,20.8 ± 0.48,13.94 ± 0.07,did not cause any inhibition of NO release,–
CC1(C)CCC[C@]2(C)c3cc4c(cc3CC[C@@H]12)CC(=O)O4 [Compound 25],77.97 ± 0.72,74.3 ± 2.19,74.3 ± 2.19,22.58 ± 0.05,–,42.6 ± 0.74,66.33 ± 0.35,53.92 ± 0.36,72.24%,–
